# Test results: PubChem BioAssay (NCI)
#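 The compound was tested at five concentrations on cells cultured in 96-well plates, with a 48-hour exposure period. TGI: total growth inhibition.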
# How the values were obtained:
# Experiment in all cases: NCI tumour cell line growth inhibition, 48 h
# A498 renal = system: A498 renal
# HCT-116 colon = system: HCT-116 colon
# HOP-62 NSCLC = system: HOP-62 NSCLC
# HOP-92 NSCLC = system: HOP-92 NSCLC
# HS 578T breast = system: HS 578T breast
# HT29 colon = system: HT29 colon
# KM12 colon = system: KM12 colon
# MDA-MB-231 breast = system: MDA-MB-231 breast
# OVCAR-4 ovarian = system: OVCAR-4 ovarian
# OVCAR-5 ovarian = system: OVCAR-5 ovarian
# SK-MEL-28 melanoma = system: SK-MEL-28 melanoma
# MOLT-4 leukemia = system: MOLT-4 leukemia
Structure (SMILES),TGI (A498 renal) [µM],TGI (HCT-116 colon) [µM],TGI (HOP-62 NSCLC) [µM],TGI (HOP-92 NSCLC) [µM],TGI (HS 578T breast) [µM],TGI (HT29 colon) [µM],TGI (KM12 colon) [µM],TGI (MDA-MB-231 breast) [µM],TGI (OVCAR-4 ovarian) [µM],TGI (OVCAR-5 ovarian) [µM],TGI (SK-MEL-28 melanoma) [µM],TGI (MOLT-4 leukemia) [µM]
CCCSc1ccc2[nH]c(N3C(=O)/C(=C/c4ccc(SC)cc4)N=C3c3ccccc3)cc2c1,> 50,> 50,> 50,> 50,> 50,> 50,32.7,> 50,> 50,> 50,> 50,–
O=C(N/N=C/c1cc(Br)cc(Br)c1[O-])c1ccccc1O.O=C(N/N=C/c1cc(Br)cc(Br)c1[O-])c1ccccc1O.[Zn+2],–,13,4.5,5.09,–,12.3,15.9,–,1.5,13.1,11.5,> 100
O=C(NNC(=S)NC1CCCCC1)C12CC3CC(CC(C3)C1)C2,> 100,> 100,> 100,–,> 100,> 100,> 100,> 100,> 100,> 100,> 100,> 100
N[C@@H]1CCN(c2c(F)cc3c(=O)c(C(=O)O)cn4c3c2Oc2cc3c(ccc5ccccc53)cc2-4)C1,> 44.8,18.5,> 100,7.56,> 100,> 100,> 100,> 100,> 100,97,> 93.2,–
C=C1C(=O)O[C@H]2C1C[C@@H](OC(C)=O)/C(C)=C/CC[C@@]1(C)O[C@H]21 (stereo partly specified),–,20.9,34.5,32.4,86,41.5,44.2,–,28.9,31.5,24.9,9.7
Cc1cc(=O)oc2cc(OCC(O)COC(C)C)ccc12 (stereo unspecified),–,> 100,> 100,> 100,> 100,> 100,> 100,> 100,> 100,> 100,> 100,> 100
CCOC(=O)/C(=N/Nc1ccccc1)N1C(=S)C=C(C)NN(C)C1=S,–,> 100,–,> 100,> 100,> 100,> 100,> 100,> 100,> 100,> 100,> 100
COc1ccc2c(c1)/C(=C\c1c(Cl)[nH]c3ccccc13)C(=O)N2,23.7,10.8,17.9,12.5,9.88,5.2,15.1,26.5,–,26.8,8.05,41
CC(=O)OCC1OC(n2c3c(c(-c4ccc(Cl)cc4)c(C#N)c2=S)CCCC3)C(OC(C)=O)C(OC(C)=O)C1OC(C)=O (stereo unspecified),79.3,> 100,> 100,40.4,–,> 100,> 100,> 100,> 100,> 100,94.6,> 100
CC(C)CC(N)C(=O)Nc1ccc2ccccc2c1 (stereo unspecified),> 100,> 100,> 100,–,> 100,> 100,> 100,> 100,54.5,> 100,> 100,> 100
